These results are taken from US20220183294A1, “PESTICIDALLY ACTIVE AZOLE AMIDE COMPOUNDS” (SYNGENTA CROP PROTECTION AG, priority 2019, published 2022).

The subject of data set [1] is Chilo suppressalis (Striped rice stemborer). The data set can be described thus: Example B4: Chilo suppressalis (Striped rice stemborer), artificial diet. It is filed as in vivo. Particulars: 144 h, application rate 200 ppm, L2 larvae, 6 days after infestation, read-out: control in at least one of the three categories (mortality, anti-feedant effect, or growth inhibition). How it is done:
Example B4: Chilo suppressalis (Striped rice stemborer) 24-well microtiter plates with artificial diet were treated with aqueous test solutions prepared from 10′000 ppm DMSO stock solutions by pipetting. After drying, the plates were infested with L2 larvae (6-8 per well). The samples were assessed for mortality, anti-feeding effect, and growth inhibition in comparison to untreated samples 6 days after infestation. Control of Chilo suppressalis by a test sample is given when at least one of the categories mortality, anti-feedant effect, and growth inhibition is higher than the untreated sample.

Data set [2] deals with Plutella xylostella (Diamond back moth). As to the kind of experiment: Example B5: Plutella xylostella (Diamond back moth), artificial diet, 24-well. It is filed as in vivo. Particulars: 192 h, application rate 200 ppm, eggs, 8 days after infestation, read-out: control in at least one of the two categories (mortality or growth inhibition). How it is done:
Example B5: Plutella xylostella (Diamond back moth)
24-well microtiter plates with artificial diet were treated with aqueous test solutions prepared from 10′000 ppm DMSO stock solutions by pipetting. After drying, Plutella eggs were pipetted through a plastic stencil onto a gel blotting paper and the plate was closed with it. The samples were assessed for mortality and growth inhibition in comparison to untreated samples 8 days after infestation.
(§1) The following compounds gave an effect of at least 80% control in at least one of the two categories (mortality or growth inhibition) at an application rate of 200 ppm: […]

Data set [3] deals with Spodoptera littoralis (Egyptian cotton leaf worm). The data set can be described thus: Example B9: Spodoptera littoralis (Egyptian cotton leaf worm), sprayed cotton leaf discs. Format: in vivo. Particulars: foliar, 72 h, application rate 200 ppm, L1 larvae, 3 days after infestation, read-out: control in at least one of the three categories (mortality, anti-feedant effect, or growth inhibition). How it is done: Example B9: Spodoptera littoralis (Egyptian cotton leaf worm)
Cotton leaf discs were placed onto agar in 24-well microtiter plates and sprayed with aqueous test solutions prepared from 10′000 ppm DMSO stock solutions. After drying the leaf discs were infested with five L1 larvae. The samples were assessed for mortality, anti-feeding effect, and growth inhibition in comparison to untreated samples 3 days after infestation. Control of Spodoptera littoralis by a test sample is given when at least one of the categories mortality, anti-feedant effect, and growth inhibition is higher than the untreated sample.

Data set [4] relates to Plutella xylostella (Diamondback Moth). The data set can be described thus: Example B13: Plutella xylostella (Diamondback Moth), artificial diet, 96-well. It is filed as in vivo. Particulars: 216 h, application rate 500 ppm, eggs/L1 larvae, 9 days after infestation. On the procedure: Example B13: Plutella xylostella (Diamondback Moth)
96-well microtiter plates containing artificial diet were treated with aqueous test solutions, prepared from 10′000 ppm DMSO stock solutions, by a liquid handling robot. After drying, eggs (-30 per well) were infested onto a netted lid which was suspended above the diet. The eggs hatch and L1 larvae move down to the diet. The samples were assessed for mortality 9 days after infestation.
The following compounds gave an effect of at least 80% mortality at an application rate of 500 ppm: […]

The subject of data set [5] is Diabrotica balteata (Corn root worm). The data set can be described thus: Example B1: Diabrotica balteata (Corn root worm), sprayed maize sprouts. It is filed as in vivo. Particulars: 96 h, application rate 200 ppm, L2 larvae, 4 days after infestation, read-out: control in at least one of the two categories (mortality or growth inhibition). How it is done:
Example B1: Diabrotica balteata (Corn root worm)
Maize sprouts placed onto an agar layer in 24-well microtiter plates were treated with aqueous test solutions prepared from 10′000 ppm DMSO stock solutions by spraying. After drying, the plates were infested with L2 larvae (6 to 10 per well). The samples were assessed for mortality and growth inhibition in comparison to untreated samples 4 days after infestation.
as §1

The subject of data set [6] is Euschistus heros (Neotropical Brown Stink Bug). As to the kind of experiment: Example B2: Euschistus heros (Neotropical Brown Stink Bug), sprayed soybean leaves. Format: in vivo. Particulars: 120 h, application rate 200 ppm, N2 nymphs, 5 days after infestation, read-out: effect in at least one of the two categories (mortality or growth inhibition). How it is done:
Example B2: Euschistus heros (Neotropical Brown Stink Bug)
Soybean leaves on agar in 24-well microtiter plates were sprayed with aqueous test solutions prepared from 10′000 ppm DMSO stock solutions. After drying the leaves were infested with N2 nymphs. The samples were assessed for mortality and growth inhibition in comparison to untreated samples 5 days after infestation.
The following compounds gave an effect of at least 80% in at least one of the two categories (mortality or growth inhibition) at an application rate of 200 ppm: […]

A value given as a limit tells only on which side of the number the result lay.

Usually mortality stands for the share of the test organisms that died. Read a high mortality as fewer survivors. As for `CC(NC(=O)c1cc(C(F)(F)F)cc(S(=O)(=O)C(F)(F)F)c1)c1ncnn1-c1ccc(OC(F)F)cn1` (stereo not drawn) [P28, N-[1-[2-[5-(difluoromethoxy)-2-pyridyl]-1,2,4-triazol-3-yl]ethyl]-3-(trifluoromethyl)-5-(trifluoromethylsulfonyl) benzamide], the percent control (mortality, anti-feedant effect or growth inhibition) at 200 ppm in data set [1] and in data set [3] was at least 80% each time. Moreover, in data set [2], the percent control (mortality or growth inhibition) at 200 ppm is at least 80%. The molecule also gave a mortality at 500 ppm in data set [4] of at least 80%.

In the case of `CC(NC(=O)c1cc(C2CC2)cc(C(F)(F)F)c1)c1ncnn1-c1ccc(C#N)cn1` (stereo not drawn) [P14, N-[1-[2-(5-cyano-2-pyridyl)-1,2,4-triazol-3-yl]ethyl]-3-cyclopropyl-5-(trifluoromethyl)benzamide], the percent control (mortality or growth inhibition) at 200 ppm in data set [5] and in data set [2] was at least 80% throughout. Also, the percent control (mortality, anti-feedant effect or growth inhibition) at 200 ppm in data set [1] and in data set [3] was at least 80% in each case. This molecule also registered a mortality at 500 ppm in data set [4] of at least 80%.

Turning to `CC(NC(=O)c1cc(C2CC2)nc(C(F)(F)F)c1)c1ncnn1-c1ncc(OC(F)F)cn1` (stereo not drawn) [P9, 2-cyclopropyl-N-[1-[2-[5-(difluoromethoxy)pyrimidin-2-yl]-1,2,4-triazol-3-yl]ethyl]-6-(trifluoromethyl) pyridine-4-carboxamide], the percent control (mortality or growth inhibition) at 200 ppm in data set [5] and in data set [2] was at least 80% each time. Besides, the percent effect (mortality or growth inhibition) at 200 ppm in data set [6] was at least 80%. Further, the percent control (mortality, anti-feedant effect or growth inhibition) at 200 ppm in data set [1] and in data set [3] was at least 80% in each case.

Consider `CC(NC(=O)c1cc(C2CC2C(F)(F)F)cc(C(F)(F)F)c1)c1ncnn1-c1ncc(OCC(F)F)cn1` (stereo not drawn) [P12], for which the percent control (mortality or growth inhibition) at 200 ppm in data set [5] and in data set [2] was at least 80% in each case. In addition, the percent effect (mortality or growth inhibition) at 200 ppm in data set [6] is at least 80%. Besides, the percent control (mortality, anti-feedant effect or growth inhibition) at 200 ppm in data set [1] and in data set [3] was at least 80% in each case.

The term melting point denotes the temperature, or range, at which the solid turns liquid. Consider `CC(NC(=O)c1cc(C(F)(F)F)cc(C2(C#N)CC2)c1)c1ncnn1-c1ccc(OCC(F)(F)F)cn1` (stereo not drawn) [P34, 3-(1-cyanocyclopropyl)-N-[1-[2-[5-(2,2,2-trifluoroethoxy)-2-pyridyl]-1,2,4-triazol-3-yl]ethyl]-5-(trifluoromethyl) benzamide], for which the melting point was in the range of 70 to 75 °C.

`CC(NC(=O)c1cc(C(F)(F)F)cc(S(=O)(=O)C(F)(F)F)c1)c1ncnn1-c1ncc(OC(F)F)cn1` (stereo not drawn) [P27, N-[1-[2-[5-(difluoromethoxy)pyrimidin-2-yl]-1,2,4-triazol-3-yl]ethyl]-3-(trifluoromethyl)-5-(trifluoromethylsulfonyl) benzamide]: the percent control (mortality, anti-feedant effect or growth inhibition) at 200 ppm in data set [1] and in data set [3] was at least 80% in each case. Also, the percent control (mortality or growth inhibition) at 200 ppm in data set [2] is at least 80%. Moreover, the mortality at 500 ppm in data set [4] is at least 80%.

With `CC(NC(=O)c1cc(C(F)(F)F)cc(S(=O)(=O)C(F)(F)F)c1)c1ncnn1-c1ncc(OCC(F)(F)F)cn1` (stereo not drawn) [P29, N-[1-[2-[5-(2,2,2-trifluoroethoxy)pyrimidin-2-yl]-1,2,4-triazol-3-yl]ethyl]-3-(trifluoromethyl)-5-(trifluoromethylsulfonyl) benzamide], in data set [1], the percent control (mortality, anti-feedant effect or growth inhibition) at 200 ppm is at least 80%. In data set [2], the percent control (mortality or growth inhibition) at 200 ppm is at least 80%. This molecule gave a mortality at 500 ppm in data set [4] of at least 80%.

Take `CC(NC(=O)c1cc(C(F)(F)F)cc(C(F)(F)C2CC2)c1)c1ncnn1-c1ccc(OCC(F)(F)F)cn1` (stereo not drawn) [P35, 3-[cyclopropyl(difluoro)methyl]-N-[1-[2-[5-(2,2,2-trifluoroethoxy)-2-pyridyl]-1,2,4-triazol-3-yl]ethyl]-5-(trifluoromethyl) benzamide]: the melting point was in the range of 48 to 52 °C.

Molecule `CC(NC(=O)c1cc(C(F)(F)F)cc(C(F)(F)C2CC2)c1)c1ncnn1-c1ccc(OCC(F)F)cn1` (stereo not drawn) [P36, 3-[cyclopropyl(difluoro)methyl]-N-[1-[2-[5-(2,2-difluoroethoxy)-2-pyridyl]-1,2,4-triazol-3-yl]ethyl]-5-(trifluoromethyl) benzamide] had a melting point of 105 to 110 °C.

Consider `CC(NC(=O)c1cc(C(F)(F)F)cc(C(F)(F)C2CC2)c1)c1ncnn1-c1ncc(OCC(F)F)cn1` (stereo not drawn) [P11, 3-[cyclopropyl(difluoro)methyl]-N-[1-[2-[5-(2,2-difluoroethoxy)pyrimidin-2-yl]-1,2,4-triazol-3-yl]ethyl]-5-(trifluoromethyl) benzamide], for which the percent control (mortality or growth inhibition) at 200 ppm in data set [5] and in data set [2] was at least 80% each time. In addition, the percent control (mortality, anti-feedant effect or growth inhibition) at 200 ppm in data set [1] and in data set [3] was at least 80% throughout.

Regarding `CC(NC(=O)c1cc(C(F)(F)F)nc(C2(C#N)CC2)c1)c1ncnn1-c1ncc(OCC(F)F)cn1` (stereo not drawn) [P10, 2-(1-cyanocyclopropyl)-N-[1-[2-[5-(2,2-difluoroethoxy)pyrimidin-2-yl]-1,2,4-triazol-3-yl]ethyl]-6-(trifluoromethyl) pyridine-4-carboxamide], the percent control (mortality or growth inhibition) at 200 ppm in data set [5] and in data set [2] was at least 80% in each case. In addition, the percent control (mortality, anti-feedant effect or growth inhibition) at 200 ppm in data set [1] and in data set [3] was at least 80% each time.

Turning to `CC(NC(=O)c1cc(C(F)(F)F)nc(C2(C#N)CC2)c1)c1ncnn1-c1ccc(OCC(F)(F)F)cn1` (stereo not drawn) [P33, 2-(1-cyanocyclopropyl)-N-[1-[2-[5-(2,2,2-trifluoroethoxy)-2-pyridyl]-1,2,4-triazol-3-yl]ethyl]-6-(trifluoromethyl) pyridine-4-carboxamide], the melting point is 170 to 175 °C.

Take `CC(NC(=O)c1cc(C(F)(F)F)cc(S(=O)(=O)C(F)(F)F)c1)c1ncnn1-c1ccc(OCC(F)(F)F)cn1` (stereo not drawn) [P32, N-[1-[2-[5-(2,2,2-trifluoroethoxy)-2-pyridyl]-1,2,4-triazol-3-yl]ethyl]-3-(trifluoromethyl)-5-(trifluoromethylsulfonyl) benzamide]: the melting point fell in the range of 125 to 130 °C.

For `CC(NC(=O)c1cc(C(F)(F)F)cc(C(F)(F)C2CC2)c1)c1ncnn1-c1ccc(C#N)cn1` (stereo not drawn) [P4, N-[1-[2-(5-cyano-2-pyridyl)-1,2,4-triazol-3-yl]ethyl]-3-[cyclopropyl(difluoro)methyl]-5-(trifluoromethyl)benzamide], the percent control (mortality or growth inhibition) at 200 ppm in data set [5] and in data set [2] was at least 80% in each case. Further, the percent control (mortality, anti-feedant effect or growth inhibition) at 200 ppm in data set [1] and in data set [3] was at least 80% throughout.

As to `CC(NC(=O)c1cc(C(F)(F)F)nc(C2(C#N)CC2)c1)c1ncnn1-c1ccc(C#N)cn1` (stereo not drawn) [P3, 2-(1-cyanocyclopropyl)-N-[1-[2-(5-cyano-2-pyridyl)-1,2,4-triazol-3-yl]ethyl]-6-(trifluoromethyl)pyridine-4-carboxamide], the percent control (mortality or growth inhibition) at 200 ppm in data set [5] and in data set [2] was at least 80% in each case. For the same molecule, the percent control (mortality, anti-feedant effect or growth inhibition) at 200 ppm in data set [1] and in data set [3] was at least 80% throughout. Moreover, the mortality at 500 ppm in data set [4] was at least 80%.
